Like-named read-outs stand apart in the source and are kept apart here.
What was measured:
Type in all cases: cell-based
[1] = test system: Non-small Cell Lung Cancer panel; test: NCI60 five-dose screen, panel mean; settings: Homo sapiens
SW-620 = test: NCI60 five-dose screen; settings: Homo sapiens
Ovarian Cancer panel = test: NCI60 five-dose screen, panel mean; settings: Homo sapiens
TK-10 [2] = test: NCI60 one-dose screen; settings: Homo sapiens
MDA-MB-468 [3] = test: NCI60 five-dose screen; settings: Homo sapiens
HS 578T = test: NCI60 one-dose screen; settings: Homo sapiens, read-out: Growth percent
HT29 = test: NCI60 one-dose screen; settings: Homo sapiens
A549/ATCC = test: NCI60 five-dose screen; settings: Homo sapiens
NCI-H322M = test: NCI60 five-dose screen; settings: Homo sapiens
NCI-H460 = test: NCI60 five-dose screen; settings: Homo sapiens
NCI-H226 = test: NCI60 one-dose screen; settings: Homo sapiens
SNB-19 = test: NCI60 five-dose screen; settings: Homo sapiens
UACC-257 [4] = test: NCI60 five-dose screen; settings: Homo sapiens
Renal Cancer panel = test: NCI60 five-dose screen, panel mean; settings: Homo sapiens
M14 = test: NCI60 one-dose screen; settings: Homo sapiens
UACC-257 [5] = test: NCI60 one-dose screen; settings: Homo sapiens
TK-10 [6] = test: NCI60 five-dose screen; settings: Homo sapiens
MDA-MB-468 [7] = test: NCI60 one-dose screen; settings: Homo sapiens
NCI-H522 = test: NCI60 one-dose screen; settings: Homo sapiens
HOP-62 [8] = test: NCI60 five-dose screen; settings: Homo sapiens
HCT-116 = test: NCI60 one-dose screen; settings: Homo sapiens
T-47D [9] = test: NCI60 five-dose screen; settings: Homo sapiens, T47D
SNB-75 = test: NCI60 one-dose screen; settings: Homo sapiens
UO-31 = test: NCI60 one-dose screen; settings: Homo sapiens
OVCAR-5 [10] = test: NCI60 one-dose screen; settings: Homo sapiens
MOLT-4 = test: NCI60 five-dose screen; settings: Homo sapiens
OVCAR-5 [11] = test: NCI60 five-dose screen; settings: Homo sapiens
T-47D [12] = test: NCI60 one-dose screen; settings: Homo sapiens, T47D, read-out: Growth percent
HOP-62 [13] = test: NCI60 one-dose screen; settings: Homo sapiens
ACHN [14] = test: NCI60 five-dose screen; settings: Homo sapiens
CAKI-1 = test: NCI60 one-dose screen; settings: Homo sapiens
COLO 205 [15] = test: NCI60 one-dose screen; settings: Homo sapiens
SF-268 = test: NCI60 one-dose screen; settings: Homo sapiens
MCF7 = test: NCI60 five-dose screen; settings: Homo sapiens
COLO 205 [16] = test: NCI60 five-dose screen; settings: Homo sapiens
CCRF-CEM = test: NCI60 five-dose screen; settings: Homo sapiens
SK-MEL-28 = test: NCI60 one-dose screen; settings: Homo sapiens
Colon Cancer panel = test: NCI60 five-dose screen, panel mean; settings: Homo sapiens
KM12 = test: NCI60 five-dose screen; settings: Homo sapiens
DU-145 = test: NCI60 one-dose screen; settings: Homo sapiens
LOX IMVI = test: NCI60 five-dose screen; settings: Homo sapiens
U251 [17] = test: NCI60 one-dose screen; settings: Homo sapiens
U251 [18] = test: NCI60 five-dose screen; settings: Homo sapiens
SF-295 = test: NCI60 one-dose screen; settings: Homo sapiens
ACHN [19] = test: NCI60 one-dose screen; settings: Homo sapiens, read-out: Growth percent
RPMI-8226 = test: NCI60 one-dose screen; settings: Homo sapiens

CC[C@]12C=CCN3CC[C@@]4(c5ccc(OC)cc5N(C)[C@H]4[C@@](O)(C(=O)OC)[C@@H]1OC(=O)CCCC[P+](c1ccc(F)cc1)(c1ccc(F)cc1)c1ccc(F)cc1)[C@@H]32 [10c]
GI50 ([1]; mean over Non-small Cell Lung Cancer panel, read-out: GI50 Mean): 24.3 µM | GI50 (SW-620; SW-620, Colon Cancer, read-out: GI50): 16.5 µM | GI50 (Ovarian Cancer panel; mean over Ovarian Cancer panel, read-out: GI50 Mean): 32.5 µM | activity at 10 µM (TK-10 [2]; TK-10, 10 μM, one-dose, read-out: Growth percent): 70.2% | GI50 (MDA-MB-468 [3]; MDA-MB-468, MDA-MB-468, Breast Cancer, read-out: GI50): 2.61 µM | activity at 10 µM (HS 578T; HS 578T, 10 μM, one-dose): -2.23% | activity at 10 µM (HT29; HT-29, HT29, 10 μM, one-dose, read-out: Growth percent): 15.9% | GI50 (A549/ATCC; A549/ATCC, Non-small Cell Lung Cancer, read-out: GI50): 33.8 µM | GI50 (NCI-H322M; Non-small Cell Lung Cancer, read-out: GI50): 50 µM | GI50 (NCI-H460; NCI-H460, Non-small Cell Lung Cancer, read-out: GI50): 29.4 µM | activity at 10 µM (NCI-H226; NCI-H226, 10 μM, one-dose, read-out: Growth percent): 38% | GI50 (SNB-19; SNB-19, SNB-19, CNS Cancer, read-out: GI50): 13 µM | GI50 (UACC-257 [4]; UACC-257, UACC-257, Melanoma, read-out: GI50): 5.59 µM | GI50 (Renal Cancer panel; mean over Renal Cancer panel, read-out: GI50 Mean): 56.7 µM | activity at 10 µM (M14; M14, 10 μM, one-dose, read-out: Growth percent): 19.7% | activity at 10 µM (UACC-257 [5]; UACC-257, 10 μM, one-dose, read-out: Growth percent): -50.7% | GI50 (TK-10 [6]; TK-10, Renal Cancer, read-out: GI50): 21.2 µM | activity at 10 µM (MDA-MB-468 [7]; MDA-MB-468, 10 μM, one-dose, read-out: Growth percent): -74.6% | activity at 10 µM (NCI-H522; NCI-H522, 10 μM, one-dose, read-out: Growth percent): -11.6% | GI50 (HOP-62 [8]; HOP-62, Non-small Cell Lung Cancer, read-out: GI50): 25.5 µM | activity at 10 µM (HCT-116; HCT-116, 10 μM, one-dose, read-out: Growth percent): 23.4% | GI50 (T-47D [9]; T-47D, Breast Cancer, read-out: GI50): 11.5 µM | activity at 10 µM (SNB-75; SNB-75, 10 μM, one-dose, read-out: Growth percent): -5.3% | activity at 10 µM (UO-31; UO-31, 10 μM, one-dose, read-out: Growth percent): 85.9% | activity at 10 µM (OVCAR-5 [10]; OVCAR-5, 10 μM, one-dose, read-out: Growth percent): 49.7% | GI50 (MOLT-4; MOLT-4, Leukemia, read-out: GI50): 14.7 µM | GI50 (OVCAR-5 [11]; OVCAR-5, Ovarian Cancer, read-out: GI50): 29.1 µM | activity at 10 µM (T-47D [12]; T-47D, 10 μM, one-dose): 12.8% | activity at 10 µM (HOP-62 [13]; HOP-62, 10 μM, one-dose, read-out: Growth percent): 51% | GI50 (ACHN [14]; Renal Cancer, read-out: GI50): > 100 µM | activity at 10 µM (CAKI-1; CAKI-1, 10 μM, one-dose, read-out: Growth percent): 73.2% | activity at 10 µM (COLO 205 [15]; COLO 205, 10 μM, one-dose, read-out: Growth percent): -43.4% | activity at 10 µM (SF-268; SF-268, 10 μM, one-dose, read-out: Growth percent): 28.1% | GI50 (MCF7; MCF7, MCF7, Breast Cancer, read-out: GI50): 11.5 µM | GI50 (COLO 205 [16]; COLO 205, COLO 205, Colon Cancer, read-out: GI50): 4.63 µM | GI50 (CCRF-CEM; Leukemia, read-out: GI50): 13.6 µM | activity at 10 µM (SK-MEL-28; SK-MEL-28, 10 μM, one-dose, read-out: Growth percent): -54.9% | GI50 (Colon Cancer panel; mean over Colon Cancer panel, read-out: GI50 Mean): 26.9 µM | GI50 (KM12; KM12, KM12, Colon Cancer, read-out: GI50): 13.4 µM | activity at 10 µM (DU-145; DU-145, 10 μM, one-dose, read-out: Growth percent): 36.4% | GI50 (LOX IMVI; Melanoma, read-out: GI50): 16.8 µM | activity at 10 µM (U251 [17]; U-251, U251, 10 μM, one-dose, read-out: Growth percent): 13% | GI50 (U251 [18]; U-251, U251, CNS Cancer, read-out: GI50): 10.7 µM | activity at 10 µM (SF-295; SF-295, 10 μM, one-dose, read-out: Growth percent): 78.5% | activity at 10 µM (ACHN [19]; 10 μM, one-dose): 103% | activity at 10 µM (RPMI-8226; RPMI-8226, 10 μM, one-dose, read-out: Growth percent): 4.14%

CC[C@]12C=CCN3CC[C@@]4(c5ccc(OC)cc5N(C)[C@H]4[C@@](O)(C(=O)OC)[C@@H]1OC(=O)CCC[P+](C1CCCCC1)(C1CCCCC1)C1CCCCC1)[C@@H]32 [9d]
GI50 ([1]; read-out: Mean GI50): 3.67 µM | GI50 (SW-620; SW-620): 2.95 µM | GI50 (Ovarian Cancer panel; read-out: Mean GI50): 7.12 µM | activity at 10 µM (TK-10 [2]; TK-10, read-out: Growth percent): -48.6% | GI50 (MDA-MB-468 [3]; MDA-MB-468): 0.313 µM | activity at 10 µM (HS 578T; Hs-578T): -33% | activity at 10 µM (HT29; HT-29, read-out: Growth percent): -56.7% | GI50 (A549/ATCC; A549): 3.46 µM | GI50 (NCI-H322M): 5.79 µM | GI50 (NCI-H460; NCI-H460): 2.77 µM | activity at 10 µM (NCI-H226; NCI-H226, read-out: Growth percent): -20% | GI50 (SNB-19; SNB-19): 2.22 µM | GI50 (UACC-257 [4]; UACC-257): 1.26 µM | GI50 (Renal Cancer panel; read-out: Mean GI50): 7.93 µM | activity at 10 µM (M14; M14, read-out: Growth percent): -78% | activity at 10 µM (UACC-257 [5]; UACC-257, read-out: Growth percent): -80.9% | GI50 (TK-10 [6]; TK-10): 2.73 µM | activity at 10 µM (MDA-MB-468 [7]; MDA-MB-468, read-out: Growth percent): -79.6% | activity at 10 µM (NCI-H522; NCI-H522, read-out: Growth percent): -82.2% | GI50 (HOP-62 [8]; HOP-62): 3.68 µM | activity at 10 µM (HCT-116; HCT-116, read-out: Growth percent): 0.16% | GI50 (T-47D [9]): 1.32 µM | activity at 10 µM (SNB-75; SNB-75, read-out: Growth percent): -61.4% | activity at 10 µM (UO-31; UO-31, read-out: Growth percent): 76.8% | activity at 10 µM (OVCAR-5 [10]; OVCAR-5, read-out: Growth percent): 11% | GI50 (MOLT-4; MOLT-4): 2.16 µM | GI50 (OVCAR-5 [11]; OVCAR-5): 3.19 µM | activity at 10 µM (T-47D [12]): -1.81% | activity at 10 µM (HOP-62 [13]; HOP-62, read-out: Growth percent): 4.26% | GI50 (ACHN [14]): 15.2 µM | activity at 10 µM (CAKI-1; CAKI-1, read-out: Growth percent): -8.49% | activity at 10 µM (COLO 205 [15]; COLO 205, read-out: Growth percent): -63.6% | activity at 10 µM (SF-268; SF-268, read-out: Growth percent): -54.1% | GI50 (MCF7; MCF7): 1.19 µM | GI50 (COLO 205 [16]; COLO 205): 0.43 µM | GI50 (CCRF-CEM): 1.69 µM | activity at 10 µM (SK-MEL-28; SK-MEL-28, read-out: Growth percent): -85.9% | GI50 (Colon Cancer panel; read-out: Mean GI50): 3.82 µM | GI50 (KM12; KM12): 1.63 µM | activity at 10 µM (DU-145; DU-145, read-out: Growth percent): 15.7% | GI50 (LOX IMVI): 2.88 µM | activity at 10 µM (U251 [17]; U-251, read-out: Growth percent): -82.5% | GI50 (U251 [18]; U-251): 0.746 µM | activity at 10 µM (SF-295; SF-295, read-out: Growth percent): -13.6% | activity at 10 µM (ACHN [19]): 32% | activity at 10 µM (RPMI-8226; RPMI-8226, read-out: Growth percent): -43.5%

Reference: PMC12028158, “Synthesis and In Vitro Evaluation of the Anticancer Effect of Novel Phosphonium Vindoline Derivatives” (International Journal of Molecular Sciences, 2025)
